# Reference: ChEMBL document CHEMBL5543144, “Discovery of a Novel Potent Tetrazole Antifungal Candidate with High Selectivity and Broad Spectrum” (J Med Chem, 2024)
# Activity calls are given as the source filed them. The rule behind the calls is not given here.
# Tests used:
# [Candida] auris [1] = Antifungal activity against fluconazole resistant Candida auris 887 assessed as inhibition of fungal growth incubated for 48 hrs by CLSI protocol based microbroth dilution method; assay type: functional; details: Candidozyma auris
# [Candida] auris [2] = Antifungal activity against fluconazole resistant Candida auris BS12372 assessed as inhibition of fungal growth incubated for 48 hrs by CLSI protocol based microbroth dilution method; assay type: functional; details: Candidozyma auris
# [Candida] auris [3] = Antifungal activity against fluconazole resistant Candida auris D12 assessed as inhibition of fungal growth incubated for 48 hrs by CLSI protocol based microbroth dilution method; assay type: functional; details: Candidozyma auris
# [4] = Hemolytic activity in rabbit RBC assessed as hemolysis at 4 ug/ml incubated for 1 hrs by absorbance based assay relative to control; assay type: toxicity, cell-based, Oryctolagus cuniculus, Erythrocyte; details: rabbit red blood cells, at 4 µg/mL, read-out: Activity
# [Candida] auris [5] = Antifungal activity against fluconazole resistant Candida auris 791 assessed as inhibition of fungal growth incubated for 48 hrs by CLSI protocol based microbroth dilution method; assay type: functional; details: Candidozyma auris
# [Candida] auris [6] = Antifungal activity against fluconazole resistant Candida auris 888 assessed as inhibition of fungal growth incubated for 48 hrs by CLSI protocol based microbroth dilution method; assay type: functional; details: Candidozyma auris
# [Candida] auris [7] = Antifungal activity against fluconazole resistant Candida auris 789 assessed as inhibition of fungal growth incubated for 48 hrs by CLSI protocol based microbroth dilution method; assay type: functional; details: Candidozyma auris
# Cryptococcus neoformans [8] = test: Antifungal activity against Cryptococcus neoformans H99 assessed as inhibition of fungal growth incubated for 72 hrs by CLSI protocol based microbroth dilution method; assay type: functional
# Cryptococcus neoformans [9] = test: Antifungal activity against Cryptococcus neoformans H99 assessed as inhibition of fungal growth at 0.125 ug/ml incubated for 48 hrs by plate reader analysis; assay type: functional, organism-based; details: dose 0.125 µg/ml
# Candida parapsilosis = test: Antifungal activity against Candida parapsilosis 22019 assessed as inhibition of fungal growth incubated for 24 hrs by CLSI protocol based microbroth dilution method; assay type: functional; details: Lodderomyces parapsilosis
# Aspergillus fumigatus = test: Antifungal activity against Aspergillus fumigatus 7544 assessed as inhibition of fungal growth incubated for 48 hrs by CLSI protocol based microbroth dilution method; assay type: functional
# Pichia kudriavzevii [10] = test: Antifungal activity against Candida krusei 4946 assessed as inhibition of fungal growth incubated for 24 hrs by CLSI protocol based microbroth dilution method; assay type: functional
# Candida albicans [11] = test: Antifungal activity against Candida albicans SC5314 assessed as inhibition of fungal growth at 0.0156 ug/ml incubated for 24 hrs by plate reader analysis; assay type: functional, organism-based; details: dose 0.0156 µg/ml
# Nakaseomyces glabratus = test: Antifungal activity against Candida glabrata 537 assessed as inhibition of fungal growth incubated for 48 hrs by CLSI protocol based microbroth dilution method; assay type: functional
# Candida tropicalis [12] = test: Antifungal activity against Candida tropicalis 2718 assessed as inhibition of fungal growth incubated for 24 hrs by CLSI protocol based microbroth dilution method; assay type: functional
# Pichia kudriavzevii [13] = test: Antifungal activity against Candida krusei 4946 assessed as inhibition of fungal growth at 0.125 ug/ml incubated for 24 hrs by plate reader analysis; assay type: functional, organism-based; details: dose 0.125 µg/ml
# Candida albicans [14] = test: Antifungal activity against Candida albicans SC5314 assessed as inhibition of fungal growth incubated for 24 hrs by CLSI protocol based microbroth dilution method; assay type: functional
# Candida tropicalis [15] = test: Antifungal activity against Candida tropicalis 2718 assessed as inhibition of fungal growth at 32 ug/ml incubated for 24 hrs by plate reader analysis; assay type: functional, organism-based; details: dose 32.0 µg/ml
# Cytochrome P450 1A2 = target: T1, Cytochrome P450 1A2 (Homo sapiens, UniProt P05177); test: Inhibition of CYP1A2 in human liver microsomes using phenacetin as substrate in presence of NADPH by LC-MS/MS analysis
# T1 sequence (P05177 whole entry): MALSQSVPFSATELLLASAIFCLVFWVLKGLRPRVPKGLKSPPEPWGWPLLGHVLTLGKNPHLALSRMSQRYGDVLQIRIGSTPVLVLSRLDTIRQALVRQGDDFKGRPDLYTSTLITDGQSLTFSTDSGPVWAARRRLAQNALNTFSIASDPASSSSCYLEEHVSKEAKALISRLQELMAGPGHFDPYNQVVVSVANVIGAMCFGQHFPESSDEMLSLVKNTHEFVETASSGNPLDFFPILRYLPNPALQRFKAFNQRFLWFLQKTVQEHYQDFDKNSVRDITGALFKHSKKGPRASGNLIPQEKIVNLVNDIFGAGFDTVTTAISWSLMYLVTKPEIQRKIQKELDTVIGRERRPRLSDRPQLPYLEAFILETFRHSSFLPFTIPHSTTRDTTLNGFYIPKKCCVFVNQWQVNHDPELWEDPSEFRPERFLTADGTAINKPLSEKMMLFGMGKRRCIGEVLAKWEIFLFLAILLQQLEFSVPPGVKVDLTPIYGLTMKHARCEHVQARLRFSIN
# Cytochrome P450 2D6 = Cytochrome P450 2D6 (Homo sapiens, UniProt P10635)
# Chain of Cytochrome P450 2D6 (P10635 whole entry): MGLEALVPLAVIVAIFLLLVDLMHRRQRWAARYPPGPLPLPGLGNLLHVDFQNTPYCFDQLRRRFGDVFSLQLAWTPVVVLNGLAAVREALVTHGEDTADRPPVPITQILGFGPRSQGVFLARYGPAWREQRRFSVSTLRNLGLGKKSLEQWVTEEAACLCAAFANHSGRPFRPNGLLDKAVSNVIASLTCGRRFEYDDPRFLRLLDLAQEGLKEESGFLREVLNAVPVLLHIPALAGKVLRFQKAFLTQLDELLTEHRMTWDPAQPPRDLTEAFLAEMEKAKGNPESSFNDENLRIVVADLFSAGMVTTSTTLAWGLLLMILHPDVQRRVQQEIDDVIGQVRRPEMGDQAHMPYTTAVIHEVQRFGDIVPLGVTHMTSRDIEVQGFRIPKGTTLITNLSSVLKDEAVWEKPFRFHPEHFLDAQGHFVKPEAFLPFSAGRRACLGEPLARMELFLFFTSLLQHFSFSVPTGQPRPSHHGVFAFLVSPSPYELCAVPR
# Cytochrome P450 3A4 = Cytochrome P450 3A4 (Homo sapiens, UniProt P08684)
# Chain of Cytochrome P450 3A4 (P08684 whole entry): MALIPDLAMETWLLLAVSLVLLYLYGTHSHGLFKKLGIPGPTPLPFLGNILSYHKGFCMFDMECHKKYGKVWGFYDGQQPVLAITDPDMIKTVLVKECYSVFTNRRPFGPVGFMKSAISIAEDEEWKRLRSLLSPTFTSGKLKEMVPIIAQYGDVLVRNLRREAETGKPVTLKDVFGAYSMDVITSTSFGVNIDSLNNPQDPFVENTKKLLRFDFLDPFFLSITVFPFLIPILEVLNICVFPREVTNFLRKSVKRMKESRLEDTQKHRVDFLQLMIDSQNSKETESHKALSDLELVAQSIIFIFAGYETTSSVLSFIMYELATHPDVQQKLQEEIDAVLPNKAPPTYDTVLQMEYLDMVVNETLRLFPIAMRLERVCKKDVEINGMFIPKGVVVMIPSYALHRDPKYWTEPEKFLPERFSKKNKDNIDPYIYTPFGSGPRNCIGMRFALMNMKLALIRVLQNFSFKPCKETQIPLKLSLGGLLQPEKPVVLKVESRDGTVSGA
# Cytochrome P450 2C9 = Cytochrome P450 2C9 (Homo sapiens, UniProt P11712)
# Chain of Cytochrome P450 2C9 (P11712 whole entry): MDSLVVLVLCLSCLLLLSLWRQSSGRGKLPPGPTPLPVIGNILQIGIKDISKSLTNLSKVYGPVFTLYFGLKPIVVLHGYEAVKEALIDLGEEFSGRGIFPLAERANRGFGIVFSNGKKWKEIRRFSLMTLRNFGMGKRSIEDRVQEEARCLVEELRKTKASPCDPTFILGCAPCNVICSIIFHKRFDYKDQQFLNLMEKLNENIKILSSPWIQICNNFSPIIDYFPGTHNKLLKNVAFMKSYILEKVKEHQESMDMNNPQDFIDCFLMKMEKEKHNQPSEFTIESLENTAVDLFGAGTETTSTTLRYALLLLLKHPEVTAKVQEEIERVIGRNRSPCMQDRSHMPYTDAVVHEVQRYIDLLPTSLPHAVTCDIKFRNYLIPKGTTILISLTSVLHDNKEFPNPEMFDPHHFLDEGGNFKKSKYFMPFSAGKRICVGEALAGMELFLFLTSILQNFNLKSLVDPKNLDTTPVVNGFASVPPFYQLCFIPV
# Candida albicans [16] = test: Antifungal activity against Candida albicans SC5314 infected in ICR mouse model assessed as median survival time at 1 mg/kg/day, po pre-infected with fungi for 2 hrs followed by compound administration and measured after 48 hrs (reference value: 3.5 days); assay type: functional
# Cytochrome P450 2C19 = Cytochrome P450 2C19 (Homo sapiens, UniProt P33261)
# Chain of Cytochrome P450 2C19 (P33261 whole entry): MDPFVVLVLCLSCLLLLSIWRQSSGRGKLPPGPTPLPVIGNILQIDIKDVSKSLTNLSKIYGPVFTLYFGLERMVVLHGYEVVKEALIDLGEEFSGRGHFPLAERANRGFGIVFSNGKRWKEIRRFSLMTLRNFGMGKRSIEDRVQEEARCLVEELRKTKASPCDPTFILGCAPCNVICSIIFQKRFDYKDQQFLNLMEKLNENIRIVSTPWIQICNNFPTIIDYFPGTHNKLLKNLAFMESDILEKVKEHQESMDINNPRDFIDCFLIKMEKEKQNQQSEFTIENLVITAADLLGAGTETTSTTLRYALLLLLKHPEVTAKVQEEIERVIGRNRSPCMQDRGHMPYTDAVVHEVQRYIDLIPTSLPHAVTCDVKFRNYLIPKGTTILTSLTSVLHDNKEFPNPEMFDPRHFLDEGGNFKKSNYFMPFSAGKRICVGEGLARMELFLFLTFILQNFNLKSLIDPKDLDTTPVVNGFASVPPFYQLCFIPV
# Candida albicans [17] = test: Antifungal activity against Candida albicans SC5314 infected in ICR mouse model assessed as fungal burden in kidney at 1 mg/kg/day, po pre-infected with fungi for 2 hrs followed by compound administration and measured after 48 hrs (reference value: 3.89 Log10CFU/g); assay type: functional
Compound,MIC50 ([Candida] auris [1]) [µg/mL],MIC50 ([Candida] auris [2]) [µg/mL],MIC50 ([Candida] auris [3]) [µg/mL],MIC50 ([Candida] auris [5]) [µg/mL],MIC50 ([Candida] auris [6]) [µg/mL],MIC50 ([Candida] auris [7]) [µg/mL],MIC50 (Cryptococcus neoformans [8]) [µg/mL],MIC50 (Candida parapsilosis) [µg/mL],MIC50 (Aspergillus fumigatus) [µg/mL],MIC50 (Pichia kudriavzevii [10]) [µg/mL],Activity (Candida albicans [11]),MIC50 (Nakaseomyces glabratus) [ng/mL],MIC50 (Candida tropicalis [12]) [ng/mL],MIC50 (Candida albicans [14]) [ng/mL],Activity (Candida tropicalis [15]),other results
C[C@@H]1[C@H](O)[C@@H](C)/C=C/C=C/C=C/C=C/C=C/C=C/C=C/[C@H](O[C@@H]2O[C@H](C)[C@@H](O)[C@H](N)[C@@H]2O)C[C@@H]2O[C@](O)(C[C@@H](O)C[C@@H](O)[C@H](O)CC[C@@H](O)C[C@@H](O)CC(=O)O[C@H]1C)C[C@H](O)[C@H]2C(=O)O [AMPHOTERICIN B],2,2,4,4,2,2,–,–,–,–,–,–,–,–,–,"hemolysis at 1 h, 4 ug/ml [4]: > 50%"
C[C@@H](n1ccc2cc(Cl)ccc2c1=O)[C@](O)(Cn1cncn1)c1ccc(F)cc1F,0.25,0.25,0.25,0.5,0.25,0.5,< 0.008,< 0.008,0.25,0.063,Active,< 8,< 8,< 8,–,Activity (Cryptococcus neoformans [9]): Active; Activity (Pichia kudriavzevii [13]): Active
C[C@@H](n1ncc2cc(Cl)ccc2c1=O)[C@](O)(Cn1cnnn1)c1ccc(F)cc1F,16,4,8,32,32,16,0.063,0.063,8,0.5,–,< 8,< 8,< 8,Active,–
C[C@@H](n1cnc2cc(Cl)ccc2c1=O)[C@](O)(Cn1cncn1)c1ccc(F)cc1F [ALBACONAZOLE],0.5,0.25,0.5,0.5,0.5,0.5,< 0.008,< 0.008,0.25,0.125,Active,< 8,< 8,< 8,Active,IC50 (Cytochrome P450 1A2): 60.3 µM; IC50 (Cytochrome P450 2D6): 31.7 µM; IC50 (Cytochrome P450 3A4): 40 nM; IC50 (Cytochrome P450 2C9): 10.4 µM; MST (Candida albicans [16]): 3.5 days; IC50 (Cytochrome P450 2C19): 13 µM; Activity (Candida albicans [17]): 3.54 log10CFU/g
C[C@@H](n1cnc2cc(Cl)ccc2c1=O)[C@](O)(Cn1cnnn1)c1ccc(F)cc1F,32,8,8,32,16,16,2,0.063,8,0.25,–,31,< 8,< 8,–,–
